The source of these data is ChEMBL document CHEMBL3991601, “The target landscape of clinical kinase drugs” (Science, 2017).

Calls of active or inactive are those of the source. Rule as the data show it, for most assays here: actives have a measured Kd and inactives only a lower limit.

Assay [1] addresses T1, EKC/KEOPS complex subunit TP53RK (Homo sapiens, UniProt Q96S44).
T1 sequence (Q96S44 whole entry): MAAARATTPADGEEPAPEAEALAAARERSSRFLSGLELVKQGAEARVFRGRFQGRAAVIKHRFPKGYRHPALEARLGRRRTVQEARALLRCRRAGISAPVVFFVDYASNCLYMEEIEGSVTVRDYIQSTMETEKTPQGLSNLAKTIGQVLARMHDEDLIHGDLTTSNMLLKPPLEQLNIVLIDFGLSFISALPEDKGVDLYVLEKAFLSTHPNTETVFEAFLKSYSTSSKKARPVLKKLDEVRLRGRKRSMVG

In assay [2] the target is Serine/threonine-protein kinase PAK 4 (Homo sapiens, UniProt O96013).
Chain of Serine/threonine-protein kinase PAK 4 (O96013 whole entry): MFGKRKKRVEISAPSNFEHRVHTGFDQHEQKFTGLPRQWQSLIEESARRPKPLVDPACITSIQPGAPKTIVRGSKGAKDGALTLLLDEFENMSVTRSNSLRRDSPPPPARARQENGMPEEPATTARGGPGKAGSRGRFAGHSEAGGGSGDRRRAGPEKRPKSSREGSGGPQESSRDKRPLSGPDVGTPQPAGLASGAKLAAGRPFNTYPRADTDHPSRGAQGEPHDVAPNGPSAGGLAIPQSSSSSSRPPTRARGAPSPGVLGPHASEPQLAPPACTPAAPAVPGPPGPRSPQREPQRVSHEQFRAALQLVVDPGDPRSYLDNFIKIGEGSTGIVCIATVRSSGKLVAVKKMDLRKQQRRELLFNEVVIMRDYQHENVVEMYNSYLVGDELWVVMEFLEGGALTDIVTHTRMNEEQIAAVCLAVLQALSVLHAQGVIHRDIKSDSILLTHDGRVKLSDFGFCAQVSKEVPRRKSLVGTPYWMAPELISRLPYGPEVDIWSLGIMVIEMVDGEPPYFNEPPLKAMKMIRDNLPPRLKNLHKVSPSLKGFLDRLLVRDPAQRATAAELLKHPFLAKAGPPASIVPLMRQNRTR
Assay [3] addresses T2, Serine/threonine-protein kinase LATS1 (Homo sapiens, UniProt O95835).
T2 sequence (O95835 whole entry): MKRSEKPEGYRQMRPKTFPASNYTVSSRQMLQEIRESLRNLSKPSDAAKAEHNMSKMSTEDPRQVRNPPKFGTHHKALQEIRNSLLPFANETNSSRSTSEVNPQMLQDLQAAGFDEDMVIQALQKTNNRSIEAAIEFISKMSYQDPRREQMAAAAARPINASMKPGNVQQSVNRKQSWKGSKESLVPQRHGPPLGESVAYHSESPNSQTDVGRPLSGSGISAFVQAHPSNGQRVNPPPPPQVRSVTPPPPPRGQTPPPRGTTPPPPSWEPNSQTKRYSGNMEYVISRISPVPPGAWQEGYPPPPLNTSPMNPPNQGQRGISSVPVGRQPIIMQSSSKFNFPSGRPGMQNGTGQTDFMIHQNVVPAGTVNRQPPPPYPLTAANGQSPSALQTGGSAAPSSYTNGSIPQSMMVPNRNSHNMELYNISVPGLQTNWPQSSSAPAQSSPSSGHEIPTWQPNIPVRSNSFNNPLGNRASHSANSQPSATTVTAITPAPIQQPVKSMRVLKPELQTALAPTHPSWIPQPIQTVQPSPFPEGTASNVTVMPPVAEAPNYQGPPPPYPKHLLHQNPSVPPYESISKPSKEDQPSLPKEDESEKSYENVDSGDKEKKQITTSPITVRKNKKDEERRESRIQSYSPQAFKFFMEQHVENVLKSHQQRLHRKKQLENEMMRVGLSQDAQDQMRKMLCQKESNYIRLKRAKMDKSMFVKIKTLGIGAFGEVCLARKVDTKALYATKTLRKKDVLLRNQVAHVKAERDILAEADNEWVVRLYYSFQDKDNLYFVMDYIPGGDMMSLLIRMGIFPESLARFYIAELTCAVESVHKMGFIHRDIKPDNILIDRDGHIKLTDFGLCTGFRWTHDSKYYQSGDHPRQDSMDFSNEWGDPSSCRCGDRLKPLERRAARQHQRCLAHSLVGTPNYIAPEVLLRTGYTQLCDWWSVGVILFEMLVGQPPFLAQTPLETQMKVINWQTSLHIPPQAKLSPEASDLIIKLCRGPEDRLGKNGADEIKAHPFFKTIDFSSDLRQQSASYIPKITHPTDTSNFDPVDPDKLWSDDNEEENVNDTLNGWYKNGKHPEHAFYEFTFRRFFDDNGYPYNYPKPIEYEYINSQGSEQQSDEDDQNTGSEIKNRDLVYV

Assay [4] has as its target T3, General transcription and DNA repair factor IIH helicase subunit XPD (Homo sapiens, UniProt P18074).
T3 sequence (P18074 whole entry): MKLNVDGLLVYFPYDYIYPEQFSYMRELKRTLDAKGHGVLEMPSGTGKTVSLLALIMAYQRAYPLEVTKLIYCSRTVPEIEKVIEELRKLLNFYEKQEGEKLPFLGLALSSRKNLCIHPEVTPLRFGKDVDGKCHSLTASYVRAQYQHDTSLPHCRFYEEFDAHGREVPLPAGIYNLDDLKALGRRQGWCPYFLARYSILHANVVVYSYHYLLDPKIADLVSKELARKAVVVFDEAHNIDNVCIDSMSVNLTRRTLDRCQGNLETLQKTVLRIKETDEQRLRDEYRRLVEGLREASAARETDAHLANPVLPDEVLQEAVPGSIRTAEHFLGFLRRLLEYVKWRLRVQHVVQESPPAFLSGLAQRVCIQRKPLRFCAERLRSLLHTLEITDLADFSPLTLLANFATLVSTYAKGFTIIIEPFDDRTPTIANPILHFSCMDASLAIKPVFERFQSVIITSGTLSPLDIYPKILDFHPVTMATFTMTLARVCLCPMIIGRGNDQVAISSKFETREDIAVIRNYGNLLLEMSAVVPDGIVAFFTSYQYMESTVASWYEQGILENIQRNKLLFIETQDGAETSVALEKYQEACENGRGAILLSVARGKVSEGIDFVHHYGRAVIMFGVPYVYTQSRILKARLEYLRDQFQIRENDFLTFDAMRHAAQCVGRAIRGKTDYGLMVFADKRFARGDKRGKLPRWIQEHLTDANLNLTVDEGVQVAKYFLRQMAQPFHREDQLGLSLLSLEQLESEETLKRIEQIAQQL
The following applies: read-out: Kd apparent; k-562, colo 205, sk-n-be(2) and mv-4-11.

Assay [5] deals with T4, ATP-dependent RNA helicase DDX1 (Homo sapiens, UniProt Q92499).
T4 sequence (Q92499 whole entry): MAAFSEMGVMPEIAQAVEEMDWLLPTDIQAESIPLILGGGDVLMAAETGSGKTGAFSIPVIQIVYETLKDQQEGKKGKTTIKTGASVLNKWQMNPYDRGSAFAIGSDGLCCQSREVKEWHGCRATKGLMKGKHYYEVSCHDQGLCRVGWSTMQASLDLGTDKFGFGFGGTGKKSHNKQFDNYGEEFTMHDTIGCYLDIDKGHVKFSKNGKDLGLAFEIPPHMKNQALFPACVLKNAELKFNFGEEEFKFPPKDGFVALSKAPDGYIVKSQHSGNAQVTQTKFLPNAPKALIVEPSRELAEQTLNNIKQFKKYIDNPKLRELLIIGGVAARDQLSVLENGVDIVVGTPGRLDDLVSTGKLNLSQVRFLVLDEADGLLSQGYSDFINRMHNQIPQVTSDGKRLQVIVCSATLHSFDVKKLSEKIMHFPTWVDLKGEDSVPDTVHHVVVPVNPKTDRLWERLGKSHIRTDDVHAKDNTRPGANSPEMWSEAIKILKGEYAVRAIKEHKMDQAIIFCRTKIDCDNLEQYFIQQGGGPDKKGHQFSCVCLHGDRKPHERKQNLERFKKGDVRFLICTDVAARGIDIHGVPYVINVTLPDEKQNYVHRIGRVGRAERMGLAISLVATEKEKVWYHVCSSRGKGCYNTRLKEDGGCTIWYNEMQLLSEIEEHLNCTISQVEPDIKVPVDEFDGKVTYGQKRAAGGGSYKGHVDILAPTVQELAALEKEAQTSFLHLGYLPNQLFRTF

Assay [6] has as its target Ribosomal protein S6 kinase alpha-3 (Homo sapiens, UniProt P51812).
Also: in the data inactive means no Kd found up to 30 µM.

Chain of Ribosomal protein S6 kinase alpha-3 (P51812 whole entry): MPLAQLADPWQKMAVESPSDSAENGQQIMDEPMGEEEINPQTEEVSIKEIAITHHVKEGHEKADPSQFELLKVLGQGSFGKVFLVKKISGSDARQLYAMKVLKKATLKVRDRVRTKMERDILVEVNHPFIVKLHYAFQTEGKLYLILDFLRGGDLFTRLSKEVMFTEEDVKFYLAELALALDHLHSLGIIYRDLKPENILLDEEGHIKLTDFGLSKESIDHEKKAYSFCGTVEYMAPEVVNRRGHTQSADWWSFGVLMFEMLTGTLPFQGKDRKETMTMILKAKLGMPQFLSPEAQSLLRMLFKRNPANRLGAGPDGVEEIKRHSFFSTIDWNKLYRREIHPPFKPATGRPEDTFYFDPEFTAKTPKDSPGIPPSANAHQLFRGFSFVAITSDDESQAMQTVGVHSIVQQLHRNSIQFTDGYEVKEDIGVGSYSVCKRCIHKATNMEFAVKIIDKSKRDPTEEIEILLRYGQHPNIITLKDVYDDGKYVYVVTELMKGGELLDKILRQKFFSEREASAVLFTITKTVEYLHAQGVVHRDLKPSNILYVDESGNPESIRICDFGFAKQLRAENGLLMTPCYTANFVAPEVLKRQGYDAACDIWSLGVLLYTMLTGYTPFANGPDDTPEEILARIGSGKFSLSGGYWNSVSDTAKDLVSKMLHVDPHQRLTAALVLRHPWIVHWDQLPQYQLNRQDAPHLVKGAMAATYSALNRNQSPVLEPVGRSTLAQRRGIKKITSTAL

In the case of `COc1cc2ncnc(Nc3ccc(F)c(Cl)c3)c2cc1NC(=O)/C=C/CN1CCCCC1` [DACOMITINIB ANHYDROUS], the Kd in assay [1], in assay [2], in assay [3], in assay [4], in assay [5] and in assay [6] was > 30 µM (inactive) throughout.

Consider `Cc1c(NC(=O)OC[C@@H]2COCCN2)cn2ncnc(Nc3ccc4c(cnn4Cc4cccc(F)c4)c3)c12` [AC-480], for which the Kd in assay [1], in assay [2], in assay [3], in assay [4], in assay [5] and in assay [6] was > 30 µM (inactive) throughout.

In the case of `Cc1cc(-c2cc(OC(=O)c3ccccc3)ccc2Cl)cc2nnc(Nc3ccc(OCCN4CCCC4)cc3)nc12` [TG100-801], the Kd in assay [1], in assay [2], in assay [3], in assay [4], in assay [5] and in assay [6] was > 30 µM (inactive) throughout.

In the case of `COc1cc2nccc(Oc3ccc(NC(=O)C4(C(=O)Nc5ccc(F)cc5)CC4)cc3)c2cc1OC` [CABOZANTINIB], the Kd in assay [1], in assay [2], in assay [3], in assay [4], in assay [5] and in assay [6] was > 30 µM (inactive) each time.

`Cc1c(Cn2c(C)nc3c(C(=O)O)cc(N4CCOCC4)cc32)cccc1C(F)(F)F` [GSK-2636771]: the Kd in assay [1], in assay [2], in assay [3], in assay [4], in assay [5] and in assay [6] was > 30 µM (inactive) each time.

As to `Cc1cc(Nc2nc(N[C@@H](C)c3ncc(F)cn3)ncc2Cl)n[nH]1` [AZD-1480], the Kd in assay [1] was > 30 µM (inactive); in assay [2], 1.88 µM (active); in assay [3], > 30 µM (inactive); in assay [4], > 30 µM (inactive); in assay [5], > 30 µM (inactive); in assay [6], > 30 µM (inactive).

For the compound `Cc1ccc(C(=O)Nc2ccc(Oc3cc4cnn(C)c4cc3-c3cn[nH]c3)c(F)c2)c(=O)n1-c1ccc(F)cc1` [MERESTINIB], the Kd in assay [1], in assay [2], in assay [3], in assay [4], in assay [5] and in assay [6] was > 30 µM (inactive) each time.

Consider `CNC(=O)c1cc(COc2nnc(Nc3ccc(Cl)cc3)c3ccoc23)ccn1` [TELATINIB], for which the Kd in assay [1], in assay [2], in assay [3], in assay [4], in assay [5] and in assay [6] was > 30 µM (inactive) throughout.

For `CNC(=O)c1cccc(-c2ccc3c(N4CCOC[C@@H]4C)nc(N4CCOC[C@@H]4C)nc3n2)c1` [VISTUSERTIB], the Kd in assay [1], in assay [2], in assay [3], in assay [4], in assay [5] and in assay [6] was > 30 µM (inactive) each time.

Take `O=C(NC[C@H](O)CO)c1ccncc1Nc1ccc(I)cc1F` [PIMASERTIB]: the Kd in assay [1], in assay [2], in assay [3], in assay [4], in assay [5] and in assay [6] was > 30 µM (inactive) each time.

In the case of `CC(C)CC(=O)Nc1[nH]nc2c1CN(C(=O)C1CCN(C)CC1)C2(C)C` [PHA-793887], the Kd is > 30 µM (inactive) in assay [1]; 0.864 µM (active) in assay [2]; > 30 µM (inactive) in assay [3]; 0.01 µM (active) in assay [4]; > 30 µM (inactive) in assay [5]; > 30 µM (inactive) in assay [6].

As for `COc1ccc2c(OCc3nnc4ccc(-c5ccccc5)nn34)ccnc2c1` [AMG-208], the Kd in assay [1], in assay [2], in assay [3], in assay [4], in assay [5] and in assay [6] was > 30 µM (inactive) each time.

Take `COc1ccc(-c2ccc3ncc4c(c3c2)n(-c2ccc(N3CCNCC3)c(C(F)(F)F)c2)c(=O)n4C)cn1` [BGT-226 FREE BASE]: the Kd in assay [1] is 1.01 µM (active); in assay [2] it was > 30 µM (inactive); in assay [3], > 30 µM (inactive); in assay [4], > 30 µM (inactive); in assay [5], > 30 µM (inactive); in assay [6], > 30 µM (inactive).
